Experimental data from PubChem BioAssay AID2060329 (Molecular Pharmacology Branch, DTP, NCI, 2025).

Tested on: MCF7 multi-cell spheroids with HUVEC/MSC, viability
Experiment: Anticancer human tumor MCF7 cell line growth inhibition [IpAb];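 further: spheroids exposed to agents for seven days before readout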
Settings: for IC50: curve of first compound; for viability, T/C: stronger effect = lower value
Outline: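 Combinations with ipatasertib or abemaciclib were tested on tumour spheroids holding HUVEC (25%) and MSC (15%) alongside 60% malignant cells. Top concentration was at or near clinical Cmax (10 microM if undefined), descending in half-log steps.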

[1] = second compound 0.1 µM, first compound 0.0316 µM
[2] = second compound 0.1 µM, first compound 0.1 µM
[3] = second compound 0.316 µM, first compound 0.0316 µM
[4] = second compound 0.316 µM, first compound 0.1 µM
[5] = second compound 1 µM, first compound 0.0316 µM
[6] = second compound 1 µM, first compound 0.1 µM

In the case of C=CC(=O)N1CCN(c2nc(=O)n(-c3c(C)ccnc3C(C)C)c3nc(-c4c(O)cccc4F)c(F)cc23)C(C)C1 (stereo not given) + CCN1CCN(Cc2ccc(Nc3ncc(F)c(-c4cc(F)c5nc(C)n(C(C)C)c5c4)n3)nc2)CC1, the IC50 (second compound 0.01 µM) is reported as over 10 µM, the IC50 (second compound 0.0316 µM) is reported as over 10 µM and the IC50 (second compound 0.1 µM) is reported as over 10 µM. For the same compound, the IC50 (second compound 0.316 µM) was over 10 µM, the IC50 (second compound 1 µM) was 6.47 µM and the viability, T/C (second compound 0.01 µM, first compound 0.0316 µM) was 97.6%. The viability, T/C (second compound 0.01 µM, first compound 0.1 µM) was 95.6%, the viability, T/C (second compound 0.01 µM, first compound 0.316 µM) was 112% and the viability, T/C (second compound 0.01 µM, first compound 1 µM) was 98.4%. For the same compound, the viability, T/C (second compound 0.01 µM, first compound 3.16 µM) was 91.4%, the viability, T/C (second compound 0.01 µM, first compound 10 µM) was 58.8% and the viability, T/C (second compound 0.0316 µM, first compound 0.0316 µM) was 98.5%. For the same compound, the viability, T/C (second compound 0.0316 µM, first compound 0.1 µM) was 94.7%, the viability, T/C (second compound 0.0316 µM, first compound 0.316 µM) was 102% and the viability, T/C (second compound 0.0316 µM, first compound 1 µM) was 110%. For the same compound, the viability, T/C (second compound 0.0316 µM, first compound 3.16 µM) was 76.9%, the viability, T/C (second compound 0.0316 µM, first compound 10 µM) was 48.3% and the viability, T/C [1] was 117%. It also gave a viability, T/C [2] of 107%, a viability, T/C (second compound 0.1 µM, first compound 0.316 µM) of 118% and a viability, T/C (second compound 0.1 µM, first compound 1 µM) of 101%. The viability, T/C (second compound 0.1 µM, first compound 3.16 µM) was 84.4%, the viability, T/C (second compound 0.1 µM, first compound 10 µM) was 59.4% and the viability, T/C [3] was 106%. It also gave a viability, T/C [4] of 106%, a viability, T/C (second compound 0.316 µM, first compound 0.316 µM) of 111% and a viability, T/C (second compound 0.316 µM, first compound 1 µM) of 94.8%. It also gave a viability, T/C (second compound 0.316 µM, first compound 3.16 µM) of 70.7%, a viability, T/C (second compound 0.316 µM, first compound 10 µM) of 50.9% and a viability, T/C [5] of 100%. For the same compound, the viability, T/C [6] was 101%, the viability, T/C (second compound 1 µM, first compound 0.316 µM) was 96.4% and the viability, T/C (second compound 1 µM, first compound 1 µM) was 78.9%. It also gave a viability, T/C (second compound 1 µM, first compound 3.16 µM) of 62% and a viability, T/C (second compound 1 µM, first compound 10 µM) of 43.1%.

With Cn1ncnc1[C@H]1c2n[nH]c(=O)c3cc(F)cc(c23)N[C@@H]1c1ccc(F)cc1 + CC(C)NCC(C(=O)N1CCN(c2ncnc3c2C(C)CC3O)CC1)c1ccc(Cl)cc1 the IC50 (second compound 0.1 µM) was over 0.1 µM, the IC50 (second compound 0.316 µM) was over 0.1 µM and the IC50 (second compound 1 µM) was over 0.1 µM. It also gave an IC50 (second compound 3.16 µM) of 0.0203 µM, an IC50 (second compound 10 µM) of under 0.000316 µM and a viability, T/C (second compound 0.1 µM, first compound 0.000316 µM) of 98.7%. For the same compound, the viability, T/C (second compound 0.1 µM, first compound 0.001 µM) was 92.8%, the viability, T/C (second compound 0.1 µM, first compound 0.00316 µM) was 89.7% and the viability, T/C (second compound 0.1 µM, first compound 0.01 µM) was 87.5%. For the same compound, the viability, T/C [1] was 79.8%, the viability, T/C [2] was 85.5% and the viability, T/C (second compound 0.316 µM, first compound 0.000316 µM) was 74.4%. For the same compound, the viability, T/C (second compound 0.316 µM, first compound 0.001 µM) was 79.9%, the viability, T/C (second compound 0.316 µM, first compound 0.00316 µM) was 81.2% and the viability, T/C (second compound 0.316 µM, first compound 0.01 µM) was 72.5%. The viability, T/C [3] was 71.8%, the viability, T/C [4] was 82.6% and the viability, T/C (second compound 1 µM, first compound 0.000316 µM) was 67.9%. The viability, T/C (second compound 1 µM, first compound 0.001 µM) was 75.6%, the viability, T/C (second compound 1 µM, first compound 0.00316 µM) was 67.2% and the viability, T/C (second compound 1 µM, first compound 0.01 µM) was 62.3%. It also gave a viability, T/C [5] of 63%, a viability, T/C [6] of 56.5% and a viability, T/C (second compound 3.16 µM, first compound 0.000316 µM) of 59%. The viability, T/C (second compound 3.16 µM, first compound 0.001 µM) was 56.3%, the viability, T/C (second compound 3.16 µM, first compound 0.00316 µM) was 58.3% and the viability, T/C (second compound 3.16 µM, first compound 0.01 µM) was 50.1%. For the same compound, the viability, T/C (second compound 3.16 µM, first compound 0.0316 µM) was 47.4%, the viability, T/C (second compound 3.16 µM, first compound 0.1 µM) was 46.4% and the viability, T/C (second compound 10 µM, first compound 0.000316 µM) was 42.3%. For the same compound, the viability, T/C (second compound 10 µM, first compound 0.001 µM) was 46.5%, the viability, T/C (second compound 10 µM, first compound 0.00316 µM) was 39.9% and the viability, T/C (second compound 10 µM, first compound 0.01 µM) was 36.1%. For the same compound, the viability, T/C (second compound 10 µM, first compound 0.0316 µM) was 41.5% and the viability, T/C (second compound 10 µM, first compound 0.1 µM) was 36.4%.
